Data on 15 molecules can be found in ChEMBL document CHEMBL4219085, “Discovery of isatin and 1H-indazol-3-ol derivatives as d-amino acid oxidase (DAAO) inhibitors” (Bioorg Med Chem, 2018).

Structures are written as SMILES.

The target in data set [1] is D-amino-acid oxidase (Sus scrofa, UniProt P00371). In words: Binding affinity to pig kidney DAAO by ITC method.
Data set [2] can be described thus: Dissociation constant, pKa of the compound by UV-spectrophotometric titration method. Type of data set: physicochemical.
Data set [3] deals with T1, D-amino-acid oxidase (Homo sapiens, UniProt P14920). In words: Inhibition of human DAAO at 20 uM using D-KYN as substrate preincubated for 20 mins followed by substrate addition measured after 30 mins by FP-6300-based fluorescence spectrometry.
Target sequence in this assay (P14920 whole entry, looked up): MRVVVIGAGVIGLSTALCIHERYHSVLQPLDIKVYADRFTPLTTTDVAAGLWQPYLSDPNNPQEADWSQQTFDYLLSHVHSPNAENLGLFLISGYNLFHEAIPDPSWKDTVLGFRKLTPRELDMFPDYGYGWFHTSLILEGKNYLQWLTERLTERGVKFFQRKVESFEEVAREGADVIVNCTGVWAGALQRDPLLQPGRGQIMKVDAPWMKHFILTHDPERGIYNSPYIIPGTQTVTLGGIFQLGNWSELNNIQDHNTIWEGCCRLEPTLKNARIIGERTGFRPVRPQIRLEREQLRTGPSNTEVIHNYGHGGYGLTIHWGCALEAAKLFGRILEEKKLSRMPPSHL
The target in data set [4] is T1, D-amino-acid oxidase. In words: Inhibition of human DAAO using D-KYN as substrate preincubated for 20 mins followed by substrate addition measured after 30 mins by FP-6300-based fluorescence spectrometry.
Target sequence in this assay (P14920 whole entry): as the sequence (P14920 whole entry, looked up) above
In data set [5] the target is T1, D-amino-acid oxidase. Briefly: Inhibition of DAAO (unknown origin).
Target sequence in this assay (P14920 whole entry): as the sequence (P14920 whole entry, looked up) above
Data set [6] can be described thus: Drug level in blood of NMRI mouse assessed at 30 mg/kg, ip co-dosed with 30 mg/kg, ip D-serine measured after 60 mins. Type of data set: ADME, organism-based. To be noted: read-out: Drug uptake.
Data set [7] can be described thus: Effective permeability of the compound assessed as membrane retention after 4 hrs at pH 5.5 to 7.4 by PAMPA. Type of data set: ADME. To be noted: pH 5.5, 4 h.
A short description of data set [8]: Effective permeability of the compound assessed as membrane retention after 4 hrs at pH 6.5 to 7.4 by PAMPA. Type of data set: ADME. Particulars: pH 6.5, 4 h.
Data set [9] in a line: Effective permeability of the compound after 4 hrs at pH 7.4 by PAMPA. It counts as ADME. Particulars: read-out: Peff.
Data set [10] in a line: Drug level in blood of NMRI mouse assessed at 30 mg/kg, ip co-dosed with 30 mg/kg, ip D-serine measured after 10 mins. Particulars: read-out: Drug uptake. Type of data set: ADME, organism-based.
A short description of data set [11]: Effective permeability of the compound after 4 hrs at pH 6.5 to 7.4 by PAMPA. It counts as ADME. Particulars: read-out: Peff.
Data set [12] has as its system Mus musculus. Briefly: Anti-schizophrenic activity in NMRI mouse assessed as increase in D-serine levels in blood at 30 mg/kg, ip measured after 10 mins by capillary electrophoresis laser induced fluorescence method. Type of data set: functional.
The nature of data set [13]: Intrinsic clearance in human primary hepatocytes at 1 uM up to 240 mins by LC-MS/MS analysis. Type of data set: ADME, cell-based, Hepatocyte. To be noted: read-out: CLH.
Data set [14] is described as follows: Elimination half life in NMRI mouse primary hepatocytes at 1 uM up to 240 mins by LC-MS/MS analysis. It counts as ADME, cell-based, Hepatocyte. To be noted: read-out: beta t1/2.
Data set [15] can be described thus: Intrinsic clearance in NMRI mouse hepatic microsomes at 1 uM up to 90 mins by LC-MS/MS analysis. It counts as ADME, microsome. To be noted: liver microsomes, read-out: CLH.
Data set [16] can be described thus: Effective permeability of the compound assessed as membrane retention after 4 hrs at pH 7.4 by PAMPA. Type of data set: ADME. To be noted: pH 7.4, 4 h.
The nature of data set [17]: Effective permeability of the compound after 4 hrs at pH 5.5 to 7.4 by PAMPA. It counts as ADME. To be noted: read-out: Peff.
Data set [18] in a line: Elimination half life in human primary hepatocytes at 1 uM up to 240 mins by LC-MS/MS analysis. It counts as ADME, cell-based, Hepatocyte. To be noted: read-out: beta t1/2.
Data set [19] in a line: Elimination half life in NMRI mouse hepatic microsomes at 1 uM up to 90 mins by LC-MS/MS analysis. It counts as ADME, microsome. Particulars: liver microsomes, read-out: beta t1/2.
The nature of data set [20]: Intrinsic clearance in human hepatic microsomes at 1 uM up to 90 mins by LC-MS/MS analysis. It counts as ADME, microsome. To be noted: liver microsomes, read-out: CLH.
In data set [21] the test system is Mus musculus. Briefly: Anti-schizophrenic activity in NMRI mouse assessed as increase in D-serine levels in blood at 30 mg/kg, ip measured after 60 mins by capillary electrophoresis laser induced fluorescence method. Type of data set: functional.
Data set [22] in a line: Intrinsic clearance in NMRI mouse primary hepatocytes at 1 uM up to 240 mins by LC-MS/MS analysis. It counts as ADME, cell-based, Hepatocyte. Particulars: read-out: CLH.
A short description of data set [23]: Elimination half life in human hepatic microsomes at 1 uM up to 90 mins by LC-MS/MS analysis. Type of data set: ADME, microsome. Particulars: liver microsomes, read-out: beta t1/2.

D-amino-acid oxidase (Sus scrofa, UniProt P00371), sequence (P00371 whole entry): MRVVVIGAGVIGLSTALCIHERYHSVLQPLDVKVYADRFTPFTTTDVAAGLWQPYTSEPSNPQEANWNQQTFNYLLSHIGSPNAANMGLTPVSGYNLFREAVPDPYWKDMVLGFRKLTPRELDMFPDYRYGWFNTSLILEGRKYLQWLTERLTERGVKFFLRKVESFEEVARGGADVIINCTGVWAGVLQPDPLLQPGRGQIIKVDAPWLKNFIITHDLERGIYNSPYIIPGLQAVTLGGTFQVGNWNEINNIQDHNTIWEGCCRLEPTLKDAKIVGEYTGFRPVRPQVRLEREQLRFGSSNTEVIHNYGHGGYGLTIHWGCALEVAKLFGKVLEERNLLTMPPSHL

At D-amino-acid oxidase [1], `Oc1n[nH]c2ccc(F)cc12` returned a Kd of 1200 nM.
Turning to `Oc1n[nH]c2ccc(Cl)cc12`, on D-amino-acid oxidase [1], the dissociation constant (Kd) was found to be 780 nM. For the same molecule, the pKa in data set [2] was 7.53.
At D-amino-acid oxidase [3], `Oc1n[nH]c2cccc(Br)c12` had an inhibition of 34%. The molecule further returned a pKa in data set [2] of 7.51.
In the case of `Cc1cccc2c1NC(=O)C2=O`, at D-amino-acid oxidase [4], the IC50 is 13100 nM. The Kd on D-amino-acid oxidase [1] was 8230 nM.
At D-amino-acid oxidase [1], `O=c1[nH][nH]c2ccccc12` had a dissociation constant (Kd) of 4430 nM. For the same molecule, in [2], the pKa came to 8.16.
Regarding `O=c1[nH][nH]c2ccc(Br)cc12`, on D-amino-acid oxidase [1], the Kd amounted to 3290 nM.
On the same count and under the same terms, as for `Oc1noc2cc(Cl)ccc12`, the figure is 870 nM.
At D-amino-acid oxidase [3], `Oc1n[nH]c2cccc(Cl)c12` returned an inhibition of 19%. Moreover, in data set [2], the pKa came to 7.51.
On to `Oc1cc(CCc2ccccc2)[nH]n1`, for which the inhibition against D-amino-acid oxidase [3] turned out to be 66%.
For the molecule `O=C1Nc2c(Cl)cccc2C1=O`, the half-inhibitory concentration (IC50) at D-amino-acid oxidase [5] turned out to be 7.87 µM. The molecule further had a pKa in data set [2] of 9.44.
For `Oc1n[nH]c2cc(F)ccc12`, the concentration at 1 h in data set [6] was determined as 770 nM. For the same molecule, the R% is 3.9% in [7], 7.1% in data set [8] and 5.8% in [16]. Also, the Papp at 4 h in data set [9] amounted to 0.72 ×10⁻⁶ cm/s; in data set [11] it was 0.97 ×10⁻⁶ cm/s; in data set [17] it was 1.2 ×10⁻⁶ cm/s. The molecule also yielded a half-maximal inhibitory concentration (IC50) at D-amino-acid oxidase [4] of 120 to 123 nM. Binding on D-amino-acid oxidase [1] was put at a Kd of 1000 nM. Moreover, the concentration at 10 min in [10] worked out at 13.1 µM. For the same molecule, the Activity in the data set on Mus musculus [12] is 33%; with Mus musculus [21], 27%. The pKa in data set [2] is 7.84. The CLint scaled at 1 µM in data set [13] was 2.78 mL/min/kg; in [22] it was 20 mL/min/kg. Also, the half-life at 1 µM in [14] amounted to 178 min; in [18], 412 min. The CLint scaled at […], 1 µM was 8.29 mL/min/kg in [15] and 0.9 mL/min/kg in [20]. For the same molecule, the half-life at […], 1 µM was found to be 79.5 min in data set [19] and 182 min in data set [23].
With `Oc1n[nH]c2c(Cl)cccc12`, the IC50 against D-amino-acid oxidase [4] turned out to be 10100 nM. Binding on D-amino-acid oxidase [1] was characterised by a dissociation constant (Kd) of 3310 nM. This molecule also came in with a pKa in [2] of 7.28.
On D-amino-acid oxidase [4], `Oc1noc2ccccc12` gave a half-maximal inhibitory concentration (IC50) of 418 nM. On D-amino-acid oxidase [1], this molecule returned a Kd of 440 nM.
In the case of `O=[N+]([O-])c1ccc2c(O)[nH]nc2c1`, the 50% inhibitory concentration (IC50) against D-amino-acid oxidase [4] came to 1200 nM. Binding at D-amino-acid oxidase [1] was put at a Kd of 4590 nM. In addition, the pKa in [2] is 6.52.
As for `Oc1n[nH]c2cc(Cl)ccc12`, the figures for the R% in data set [7], in data set [8] and in data set [16] were 6.7%, 9.7% and 2.5%, respectively. Moreover, the Papp at 4 h in [9] turned out to be 4.47 ×10⁻⁶ cm/s; in [11], 7.43 ×10⁻⁶ cm/s; in data set [17], 9.53 ×10⁻⁶ cm/s. This molecule had a concentration for half-maximal inhibition (IC50) at D-amino-acid oxidase [4] of 150 to 156 nM. The molecule also displayed a Kd at D-amino-acid oxidase [1] of 2000 nM. Further, the pKa in data set [2] was determined as 7.59. Besides, the CLint scaled at 1 µM in data set [13] was 2.54 mL/min/kg; in [22] it was 68.2 mL/min/kg. Further, the half-life at 1 µM in data set [14] was determined as 52.2 min; in data set [18], 450 min. The CLint scaled at […], 1 µM in data set [15] was 11.7 mL/min/kg; in data set [20], 0.76 mL/min/kg. In addition, the half-life at […], 1 µM came to 56.5 min in data set [19] and 216 min in data set [23].
